Assay results published in EP0113998A2, “Composition and treatment for herpes simplex viral infections” (priority 1982, dated 1984).
Marks after values point to notes of the source that are not given here.

System: herpes simplex infections
Assay type: in vivo, Human
Conditions: for Side Effects: human, in vivo; for Number Days To > 90% Improvement: topical, 1% in aqueous 30% ethanol and 5% neopurcellin, genital and oral herpes patients, placebo 6.250
Procedure: A clinical study was performed in a. classical double blind format with numbered vials containing either 1% sodium deoxycholic acid (DOC)in an aqueous solution of 30% ethanol and 5% neopurcellin (a mixture of inert medium chain fatty acids). The placebo was exactly the same, except that it lacked the sodium deoxycholic acid.

SMILES	Efficacy by site of infection (genital / oral herpes) (description in words, patients of Example 2)	Side Effects	reduction of significant signs of herpes simplex infections including erythema, edema, vesiculation, ulceration and pain (summary of findings of Example 2)	Number Days To > 90% Improvement [days]
CC[N+](C)(CC)CCO[C@H]1CC[C@@]2(C)C(=CC[C@H]3[C@@H]4CC[C@H]([C@@H](C)O)[C@@]4(C)CC[C@@H]32)C1 [TX047, 3-beta-[2-(Diethylamino)ethoxy]-20-beta-hydroxypregn-5-ene methyl p-toluenesulphonate]	approx. 60% genital, 40% oral herpes. Efficacy was greatest in the treatment of oral infec-tions and less but clearly active, and use-ful for genital herpes.	2*	markedly reduce the significant signs of herpes simplex infections	1.774
C[C@H](CCC(=O)O)[C@H]1CC[C@H]2[C@@H]3CC[C@@H]4C[C@H](O)CC[C@]4(C)[C@H]3C[C@H](O)[C@]12C [DOC, sodium deoxycholic acid]		1*		1.608
